{"source": "ChEMBL document CHEMBL1156428", "about": "(J Biol Chem, 2007)", "key": {"[1]": {"target": "T1, Human immunodeficiency virus type 1 reverse transcriptase (Human immunodeficiency virus 1, UniProt Q72547)", "assay": "Inhibition of HIV1 RT mediated DNA-dependent DNA synthesis initiation using RNA PPT primed substrate by scintillation proximity assay"}, "[2]": {"target": "T1, Human immunodeficiency virus type 1 reverse transcriptase", "assay": "Inhibition of HIV1 RT mediated DNA-dependent DNA synthesis initiation using RNA/DNAM duplex primed substrate by scintillation proximity assay"}, "[3]": {"target": "T2, Human immunodeficiency virus type 1 reverse transcriptase (Human immunodeficiency virus 1, UniProt Q72547, Y181C)", "assay": "Inhibition of HIV1 RT Y181C mutant mediated DNA-dependent DNA polymerization using DNA PPT primed substrate by scintillation proximity assay"}, "[4]": {"target": "T1, Human immunodeficiency virus type 1 reverse transcriptase", "assay": "Inhibition of HIV1 RT mediated DNA-dependent DNA polymerization using chimeric substrate with RNA PPT primer extended at 3' end with upto 2 deoxyribonucleotides"}, "[5]": {"assay": "Inhibition of HIV1 RT D443N mutant mediated DNA-dependent DNA polymerization using chimeric substrate with RNA PPT primer extended at 3' end with upto 3 deoxyribonucleotides", "set-up": "species or system Human immunodeficiency virus 1"}, "[6]": {"assay": "Inhibition of HIV1 RT D443N mutant mediated DNA-dependent DNA polymerization using chimeric substrate with RNA PPT primer extended at 3' end with upto 12 deoxyribonucleotides", "set-up": "species or system Human immunodeficiency virus 1"}, "[7]": {"assay": "Inhibition of HIV1 RT D443N mutant mediated DNA-dependent DNA polymerization using chimeric substrate with RNA PPT primer extended at 3' end with upto 6 deoxyribonucleotides", "set-up": "species or system Human immunodeficiency virus 1"}, "[8]": {"target": "T1, Human immunodeficiency virus type 1 reverse transcriptase", "assay": "Inhibition of HIV1 RT mediated DNA-dependent DNA polymerization using chimeric substrate with RNA PPT primer extended at 3' end with upto 3 deoxyribonucleotides"}, "[9]": {"assay": "Inhibition of HIV1 RT D443N mutant mediated DNA-dependent DNA polymerization using chimeric substrate with RNA PPT primer extended at 3' end with upto one deoxyribonucleotide", "set-up": "species or system Human immunodeficiency virus 1"}, "[10]": {"target": "T1, Human immunodeficiency virus type 1 reverse transcriptase", "assay": "Inhibition of HIV1 RT mediated DNA-dependent DNA polymerization using chimeric substrate with RNA PPT primer extended at 3' end with upto 9 deoxyribonucleotides"}, "[11]": {"target": "T1, Human immunodeficiency virus type 1 reverse transcriptase", "assay": "Inhibition of HIV1 RT mediated DNA-dependent DNA polymerization"}, "[12]": {"target": "T2, Human immunodeficiency virus type 1 reverse transcriptase", "assay": "Inhibition of HIV1 RT Y181C mutant mediated DNA-dependent DNA polymerization using RNA/DNAM duplex primed substrate by scintillation proximity assay"}, "[13]": {"assay": "Inhibition of HIV1 RT D443N mutant mediated DNA-dependent DNA polymerization using chimeric substrate with RNA PPT primer extended at 3' end with upto 9 deoxyribonucleotides", "set-up": "species or system Human immunodeficiency virus 1"}, "[14]": {"system": "Human immunodeficiency virus 1", "assay": "Inhibition of HIV1 RT D443N mutant mediated DNA-dependent DNA polymerization"}, "[15]": {"target": "T1, Human immunodeficiency virus type 1 reverse transcriptase", "assay": "Inhibition of HIV1 RT mediated DNA-dependent DNA synthesis initiation using DNA PPT-primed substrate"}, "[16]": {"target": "T3, Human immunodeficiency virus type 1 reverse transcriptase (Human immunodeficiency virus 1, UniProt Q72547, K103N)", "assay": "Inhibition of HIV1 RT K103N mutant mediated DNA-dependent DNA polymerization using DNA PPT primed substrate by scintillation proximity assay"}, "[17]": {"assay": "Inhibition of HIV1 RT D443N mutant mediated DNA-dependent DNA polymerization using chimeric substrate with RNA PPT primer extended at 3' end with upto 2 deoxyribonucleotides", "set-up": "species or system Human immunodeficiency virus 1"}, "[18]": {"target": "T1, Human immunodeficiency virus type 1 reverse transcriptase", "assay": "Inhibition of HIV1 RT mediated RNA-dependent minus-strand DNA synthesis after 5 mins by gel-based assay"}, "[19]": {"target": "T1, Human immunodeficiency virus type 1 reverse transcriptase", "assay": "Inhibition of HIV1 RT mediated DNA-dependent DNA polymerization using chimeric substrate with RNA PPT primer extended at 3' end with upto one deoxyribonucleotide"}, "[20]": {"target": "T1, Human immunodeficiency virus type 1 reverse transcriptase", "assay": "Inhibition of HIV1 RT mediated DNA-dependent plus-strand DNA polymerization after 5 mins by gel-based assay"}, "[21]": {"assay": "Inhibition of HIV1 RT D443N mutant mediated DNA-dependent DNA polymerization using chimeric substrate with RNA PPT primer", "set-up": "species or system Human immunodeficiency virus 1"}, "[22]": {"target": "T1, Human immunodeficiency virus type 1 reverse transcriptase", "assay": "Inhibition of HIV1 RT mediated DNA-dependent DNA polymerization using chimeric substrate with RNA PPT primer"}, "[23]": {"target": "T3, Human immunodeficiency virus type 1 reverse transcriptase", "assay": "Inhibition of HIV1 RT K103N mutant mediated DNA-dependent DNA polymerization using RNA/DNAM duplex primed substrate by scintillation proximity assay"}, "[24]": {"target": "T2, Human immunodeficiency virus type 1 reverse transcriptase", "assay": "Inhibition of HIV1 RT Y181C mutant mediated DNA-dependent DNA polymerization using RNA PPT primed substrate by scintillation proximity assay"}, "[25]": {"target": "T1, Human immunodeficiency virus type 1 reverse transcriptase", "assay": "Inhibition of HIV1 RT mediated DNA-dependent DNA polymerization using chimeric substrate with RNA PPT primer extended at 3' end with upto 12 deoxyribonucleotides"}, "[26]": {"target": "T3, Human immunodeficiency virus type 1 reverse transcriptase", "assay": "Inhibition of HIV1 RT K103N mutant mediated DNA-dependent DNA polymerization using RNA PPT primed substrate by scintillation proximity assay"}}, "note": "Active and inactive are the calls of the source. The calls are words filed in the database; no cut-off is given here.", "data": [{"smiles": "Cc1cn([C@H]2C[C@H](N=[N+]=[N-])[C@@H](CO[P@](=O)(O)O[P@](=O)(O)OP(=O)(O)O)O2)c(=O)[nH]c1=O", "note": "[ZIDOVUDINE TRIPHOSPHATE]", "values": [{"measurement": "IC50", "setting": "[1]", "result": 320, "unit": "nM"}, {"measurement": "IC50", "setting": "[2]", "result": 360, "unit": "nM"}]}, {"smiles": "CCc1cc(NCc2nc3c(Cl)ccc(Cl)c3o2)c(O)nc1C", "note": "[L-697661]", "values": [{"measurement": "IC50", "setting": "[3]", "result": "> 5000", "unit": "nM"}, {"measurement": "IC50", "setting": "[4]", "result": 280, "unit": "nM"}, {"measurement": "IC50", "setting": "[5]", "result": 240, "unit": "nM"}, {"measurement": "IC50", "setting": "[6]", "result": 150, "unit": "nM"}, {"measurement": "IC50", "setting": "[7]", "result": 270, "unit": "nM"}, {"measurement": "IC50", "setting": "[8]", "result": 270, "unit": "nM"}, {"measurement": "IC50", "setting": "[9]", "result": 240, "unit": "nM"}, {"measurement": "IC50", "setting": "[1]", "result": 430, "unit": "nM"}, {"measurement": "IC50", "setting": "[2]", "result": 230, "unit": "nM"}, {"measurement": "IC50", "setting": "[10]", "result": 320, "unit": "nM"}, {"measurement": "IC50", "setting": "[11]", "result": 290, "unit": "nM"}, {"measurement": "IC50", "setting": "[12]", "result": "> 5000", "unit": "nM"}, {"measurement": "IC50", "setting": "[13]", "result": 130, "unit": "nM"}, {"measurement": "Activity", "setting": "[14]", "result": "inactive"}, {"measurement": "IC50", "setting": "[15]", "result": "> 10000", "unit": "nM"}, {"measurement": "IC50", "setting": "[16]", "result": "> 5000", "unit": "nM"}, {"measurement": "IC50", "setting": "[17]", "result": 230, "unit": "nM"}, {"measurement": "IC50", "setting": "[18]", "result": 1400, "unit": "nM"}, {"measurement": "IC50", "setting": "[19]", "result": 220, "unit": "nM"}, {"measurement": "IC50", "setting": "[20]", "result": 35, "unit": "nM"}, {"measurement": "IC50", "setting": "[21]", "result": 440, "unit": "nM"}, {"measurement": "IC50", "setting": "[22]", "result": 280, "unit": "nM"}, {"measurement": "IC50", "setting": "[23]", "result": "> 5000", "unit": "nM"}, {"measurement": "IC50", "setting": "[24]", "result": "> 5000", "unit": "nM"}, {"measurement": "IC50", "setting": "[25]", "result": 130, "unit": "nM"}, {"measurement": "IC50", "setting": "[26]", "result": "> 5000", "unit": "nM"}]}]}
